Among the data in US12091402B2 (Avilar Therapeutics, Inc., priority 2021, dated 2024) are EC50 and Kd values, retold here.

In assay [1] the target is T1, ASGPR receptor on the cell surface (HepG2 cells) (Homo sapiens, UniProt P07306).
T1 construct: host or cells: HepG2
T1 sequence (P07306 1-291): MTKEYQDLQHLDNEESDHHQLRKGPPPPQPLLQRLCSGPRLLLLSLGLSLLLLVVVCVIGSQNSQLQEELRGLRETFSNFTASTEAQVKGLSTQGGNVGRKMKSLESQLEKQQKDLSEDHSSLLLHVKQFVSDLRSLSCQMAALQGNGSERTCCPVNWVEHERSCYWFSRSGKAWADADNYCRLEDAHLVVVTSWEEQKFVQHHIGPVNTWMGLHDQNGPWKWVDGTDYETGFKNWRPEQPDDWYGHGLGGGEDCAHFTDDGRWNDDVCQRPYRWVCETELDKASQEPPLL
T1 sequence (P07307 1-311 partner): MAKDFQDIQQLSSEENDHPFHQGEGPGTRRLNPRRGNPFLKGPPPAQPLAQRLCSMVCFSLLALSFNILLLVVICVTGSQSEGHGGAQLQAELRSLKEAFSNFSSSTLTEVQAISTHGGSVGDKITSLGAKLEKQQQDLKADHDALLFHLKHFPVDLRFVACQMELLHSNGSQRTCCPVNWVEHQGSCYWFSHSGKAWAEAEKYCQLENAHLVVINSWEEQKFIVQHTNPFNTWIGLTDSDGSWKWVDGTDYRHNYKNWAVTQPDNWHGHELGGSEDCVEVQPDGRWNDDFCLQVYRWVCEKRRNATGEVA
The assay can be described thus: Ternary complex formation assay (flow cytometry, HepG2). The format is cell-based. The text has this: The ternary complex formation assay is designed to identify the concentration of Degrader required to form a complex between the degrader, a constant concentration of fluorescently-labeled antibody and the ASGPR receptor on the cell surface. The peak mean fluorescence intensity (MFI) occurs at the optimal degrader concentration for ternary complex formation. Sub-optimal concentrations of degrader (too much or too little) results in fewer complexes formed and a reduced […].
Human IgG (Sigma-Aldrich, 14506) was covalently labeled with Alexa Fluor 488 using the Alexa Fluor™ 488 Protein Labeling Kit (Thermo Fisher, A10235) following the manufacturer's instructions. HepG2 cells (ATCC, HIB-8065) were cultured to about 70% confluence and harvested by trypsinization. Single cell suspensions of HepG2 cells were plated in 96 well plates at 1×10^5 cells/well in cell culture media (DMEM supplemented with […]) and placed at 4° C. For studies using human IgG, cells were incubated with 100 nM AF488-labeled anti-human IgG and serial dilutions of IgG-based degrader for 1 hour at 4° C. For studies using DNP, cells were incubated with 100 nM AF488-labeled polyclonal rabbit anti-dinitrophenyl (DNP) antibodies (ThermoFisher) and serial dilutions of DNP-based degrader for 1 hour at 4° C. After washing once with ice-cold PBS containing 0.1% BSA and 0.1% sodium azide, cells were resuspended in 150 uL PBS+0.1% BSA and cell-associated AF488 fluorescence was measured by flow cytometry using the iQue® Screener PLUS Flow Cytometer (IntelliCyt).

The subject of the next assay is HepG2 cells. Description: Cellular uptake assay of AF488-labeled antibody (HepG2). It is filed as cell-based. A digest of the protocol:
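Ternary-complex uptake via ASGPR was imaged after fixation: the read-out is AF488-positive HepG2 cells divided by total DAPI nuclei. Degrader dilutions (IgG- or DNP-based, 0.1% DMSO final) were co-incubated 6 h at 37° C. with 100 nM of the corresponding fluorescent antibody.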

The next assay has as its target T2, ASGPR (Homo sapiens, UniProt P07306).
T2 sequence (P07306 1-291): T1 sequence (P07306 1-291)
The assay can be described thus: Affinity to ASGPR by surface plasmon resonance (SPR).

[2] abbreviates: HepG2 cells, read-out: Uptake EC50.
[3] abbreviates: Ternary Complex EC50 (nM), HepG2 cells, 100 nM AF488-labeled antibody, 1 hour at 4° C., class symbols.
The mark [4] stands for this setting: Homo sapiens, HepG2, 6 h, read-out: Uptake Assay EC50 (nM).
Where [5] appears, read: HepG2 cells, 100 nM AF488-labeled antibody, 1 hour at 4° C., class symbols, read-out: Ternary Complex EC50.
Setting [6] is: HepG2 cells, 100 nM AF488-labeled antibody, 37° C. for 6 hours, class symbols, read-out: Uptake Assay EC50.

Read-outs that look alike come from different tables or passages of the source.

On to `CC(C)C[C@@H]1NC(=O)[C@H](Cc2c[nH]cn2)NC(=O)[C@H](Cc2c[nH]c3ccccc23)NC(=O)[C@H](C)NC(=O)[C@@H](NC(=O)[C@H](CC(=O)O)NC(=O)CCOCCOCCOCCOCCNC(=O)CCCc2cn(CCCCCC(=O)NC(COCCC(=O)NCCOCCOCCOCCOC[C@H]3OC[C@H](Nc4nccc(C(F)(F)F)n4)C[C@H]3O)COCCC(=O)NCCOCCOCCOCCOC[C@H]3OC[C@H](Nc4nccc(C(F)(F)F)n4)C[C@H]3O)nn2)CSSC[C@@H](C(=O)N[C@H](C(N)=O)[C@@H](C)O)NC(=O)[C@H](Cc2c[nH]c3ccccc23)NC(=O)[C@H](C(C)C)NC(=O)[C@H](CC(C)C)NC(=O)[C@H](CCC(=O)O)NC(=O)CNC1=O` [Compound 88], for which the EC50 (in assay [1]; with HepG2 cells (setting [2])) was above 1000 nM each time. Besides, the Kd (in general, the constant that tells how readily two partners part at equilibrium) on ASGPR is above 1 µM.

On to `O=[N+]([O-])c1ccc(NCCOCCOCCOCCOC[C@@]23CO[C@@H](O2)[C@H](Nc2nc(Cl)ns2)[C@@H](O)[C@H]3O)c([N+](=O)[O-])c1` [Compound 27, (1S,2R,3R,4R,5S)-4-((3-chloro-1,2,4-thiadiazol-5-yl)amino)-1-(13-((2,4-dinitrophenyl)amino)-2,5,8,11-tetraoxatridecyl)-6,8-dioxabicyclo[3.2.1]octane-2,3-diol], for which the EC50 (in assay [1] (setting [3]); with HepG2 cells (setting [4])) was below 100 nM throughout. At ASGPR, the Kd is below 0.1 µM.

Take `O=C(CCOCCNC(=O)COCCOCCOCCNc1ccc([N+](=O)[O-])cc1[N+](=O)[O-])NCCOCCOCCOCCOC[C@@]12CO[C@@H](O1)[C@H](Nc1nc(Cl)ns1)[C@@H](O)[C@H]2O` [Compound 29, N-(1-((1S,2R,3R,4R,5S)-4-((3-chloro-1,2,4-thiadiazol-5-yl)amino)-2,3-dihydroxy-6,8-dioxabicyclo[3.2.1]octan-1-yl)-2,5,8,11-tetraoxatridecan-13-yl)-3-((14-((2,4-dinitrophenyl)amino)-4-oxo-6,9,12-trioxa-3-azatetradecyl)oxy)propanamide]: the EC50 (in assay [1] (setting [3]); in the assay with HepG2 cells (setting [4])) was below 100 nM throughout. In addition, on ASGPR, the Kd is 0.1 to 0.5 µM.

As to `CC(C)C[C@@H]1NC(=O)[C@H](Cc2c[nH]cn2)NC(=O)[C@H](Cc2c[nH]c3ccccc23)NC(=O)[C@H](C)NC(=O)[C@@H]2CSSC[C@H](NC(=O)[C@H](Cc3c[nH]c4ccccc34)NC(=O)[C@H](C(C)C)NC(=O)[C@H](CC(C)C)NC(=O)[C@H](CCC(=O)O)NC(=O)CNC1=O)C(=O)N[C@@H]([C@@H](C)O)C(=O)N1CCC[C@@H]1C(=O)N1C[C@@H](NC(=O)COCCOCCOCC(=O)NC(COCCC(=O)NCCOCCOCCOCCOC[C@H]3OC[C@H](Nc4nccc(C(F)(F)F)n4)[C@@H](O)[C@H]3O)COCCC(=O)NCCOCCOCCOCCOC[C@H]3OC[C@H](Nc4nccc(C(F)(F)F)n4)[C@@H](O)[C@H]3O)C[C@H]1C(=O)N[C@@H](CC(=O)O)C(=O)N2` [Compound 38], the EC50 (in assay [1] (setting [5]); in the assay on HepG2 cells (setting [6])) was below 100 nM each time. The Kd at ASGPR is below 0.1 µM.

As for `CC(C)C[C@@H]1NC(=O)[C@H](Cc2cnc[nH]2)NC(=O)[C@H](Cc2c[nH]c3ccccc23)NC(=O)[C@H](C)NC(=O)[C@@H](NC(=O)[C@@H](N)CC(=O)O)CSSC[C@@H](C(=O)N[C@H](C(N)=O)[C@@H](C)O)NC(=O)[C@H](Cc2c[nH]c3ccccc23)NC(=O)[C@H](C(C)C)NC(=O)[C@H](CC(C)C)NC(=O)[C@H](CCC(=O)NCCOCCOCCOCCOCCNC(=O)CCCc2cn(CCCCCC(=O)NC(COCCC(=O)NCCOCCOCCOCCOC[C@H]3OC[C@H](Nc4nccc(C(F)(F)F)n4)[C@@H](O)[C@H]3O)COCCC(=O)NCCOCCOCCOCCOC[C@H]3OC[C@H](Nc4nccc(C(F)(F)F)n4)[C@@H](O)[C@H]3O)nn2)NC(=O)CNC1=O` [Compound 2], the EC50 (in general, the concentration at which the effect is half-maximal) in assay [1] is below 100 nM; in the assay on HepG2 cells (setting [6]) it was 100 to 500 nM.

On to `O=C(CCOCC(COCCC(=O)NCCOCCOCCOCCOC[C@@]12CO[C@@H](O1)[C@H](Nc1nc(Cl)ns1)[C@@H](O)[C@H]2O)NC(=O)COCCOCCOCCNc1ccc([N+](=O)[O-])cc1[N+](=O)[O-])NCCOCCOCCOCCOC[C@@]12CO[C@@H](O1)[C@H](Nc1nc(Cl)ns1)[C@@H](O)[C@H]2O` [Compound 30, 3,3′-((2-(2-(2-(2-(2-((2,4-dinitrophenyl)amino)ethoxy)ethoxy)ethoxy)acetamido)propane-1,3-diyl)bis(oxy))bis(N-(1-((1S,2R,3R,4R,5S)-4-((3-chloro-1,2,4-thiadiazol-5-yl)amino)-2,3-dihydroxy-6,8-dioxabicyclo[3.2.1]octan-1-yl)-2,5,8,11-tetraoxatridecan-13-yl)propanamide)], for which the EC50 (in assay [1] (setting [3]); in the assay with HepG2 cells (setting [4])) was below 100 nM in each case. The same compound had a Kd on ASGPR below 0.1 µM.

For the compound `CC(C)C[C@@H]1NC(=O)[C@H](Cc2cnc[nH]2)NC(=O)[C@H](Cc2c[nH]c3ccccc23)NC(=O)[C@H](C)NC(=O)[C@@H]2CSSC[C@H](NC(=O)[C@H](Cc3c[nH]c4ccccc34)NC(=O)[C@H](C(C)C)NC(=O)[C@H](CC(C)C)NC(=O)[C@H](CCC(=O)O)NC(=O)CNC1=O)C(=O)N[C@@H]([C@@H](C)O)C(=O)N1CCC[C@@H]1C(=O)N1C[C@@H](NC(=O)COCCOCC(=O)NC(COCCC(=O)NCCOCCOCCOCCOC[C@H]3OC[C@H](Nc4nccc(C(F)(F)F)n4)[C@@H](O)[C@H]3O)COCCC(=O)NCCOCCOCCOCCOC[C@H]3OC[C@H](Nc4nccc(C(F)(F)F)n4)[C@@H](O)[C@H]3O)C[C@H]1C(=O)N[C@@H](CC(=O)O)C(=O)N2` [Compound 47], the EC50 (in assay [1] (setting [5]); in the assay on HepG2 cells (setting [6])) was below 100 nM in each case.

In the case of `CC(C)C[C@@H]1NC(=O)[C@H](Cc2c[nH]cn2)NC(=O)[C@H](Cc2c[nH]c3ccccc23)NC(=O)[C@H](C)NC(=O)[C@@H]2CSSC[C@H](NC(=O)[C@H](Cc3c[nH]c4ccccc34)NC(=O)[C@H](C(C)C)NC(=O)[C@H](CC(C)C)NC(=O)[C@H](CCC(=O)O)NC(=O)CNC1=O)C(=O)N[C@@H]([C@@H](C)O)C(=O)N1CCC[C@@H]1C(=O)N1C[C@@H](NC(=O)CNC(COCCC(=O)NCCOCCOCCOCCO[C@@H]3O[C@H](CO)[C@H](O)[C@H](O)[C@H]3Nc3cncc(C(F)(F)F)n3)COCCC(=O)NCCOCCOCCOCCO[C@@H]3O[C@H](CO)[C@H](O)[C@H](O)[C@H]3Nc3cncc(C(F)(F)F)n3)C[C@H]1C(=O)N[C@@H](CC(=O)O)C(=O)N2` [Compound 71], the concentration for a half-maximal effect (EC50) (in assay [1]; with HepG2 cells (setting [2])) was below 100 nM throughout. Also, on ASGPR, the Kd is below 0.1 µM.

Consider `O=C(CCOCC(COCCC(=O)NCCOCCOCCOCCOC[C@@]12CO[C@@H](O1)[C@H](Nc1nccc(C(F)(F)F)n1)[C@@H](O)[C@H]2O)NC(=O)COCCOCCOCCNc1ccc([N+](=O)[O-])cc1[N+](=O)[O-])NCCOCCOCCOCCOC[C@@]12CO[C@@H](O1)[C@H](Nc1nccc(C(F)(F)F)n1)[C@@H](O)[C@H]2O` [Compound 31, 3,3′-((2-(2-(2-(2-(2-((2,4-dinitrophenyl)amino)ethoxy)ethoxy)ethoxy)acetamido)propane-1,3-diyl)bis(oxy))bis(N-(1-((1S,2R,3R,4R,5S)-2,3-dihydroxy-4-((4-(trifluoromethyl)pyrimidin-2-yl)amino)-6,8-dioxabicyclo[3.2.1]octan-1-yl)-2,5,8,11-tetraoxatridecan-13-yl)propanamide)], for which the EC50 (in assay [1] (setting [3]); with HepG2 cells (setting [4])) was below 100 nM in each case. Also, on ASGPR, the Kd was below 0.1 µM.

In the case of `O=[N+]([O-])c1ccc(NCCOCCOCCOCCOCCOCCOCCOC[C@@]23CO[C@@H](O2)[C@H](Nc2nc(Cl)ns2)[C@@H](O)[C@H]3O)c([N+](=O)[O-])c1` [Compound 26, (1S,2R,3R,4R,5S)-4-((3-chloro-1,2,4-thiadiazol-5-yl)amino)-1-(22-((2,4-dinitrophenyl)amino)-2,5,8,11,14,17,20-heptaoxadocosyl)-6,8-dioxabicyclo[3.2.1]octane-2,3-diol], the EC50 (in assay [1] (setting [3]); in the assay with HepG2 cells (setting [4])) was below 100 nM in each case.
